In test [1] the target is T1, AMG-Z (AMG(1-526aa)::Z, Aspergillus niger glucoamylase fused to Z domain of Staphylococcus aureus protein A, SEQ ID NO 25) (Aspergillus niger, UniProt P69328).
T1 construct: made in house; host or cells: Aspergillus oryzae (transformant JaL1171 of host BECh2)
The test can be described thus: Biacore SPR, binding of DAP AMG-Z to acarbose ligand (biotin-acarbose on SA chip). Background: In SPR one partner is held on a chip, and binding of the other changes the refractive index at the surface.
From the text: The commercialised surface plasmon resonance (SPR) technology for real time monitoring biomolecular binding event is used to measure the binding affinities for the prepared DAP candidates. The general principle of this technology is that a SPR sensor chip measures changes in refractive index, and the changes in refractive index correlate to changes in mass in the aqueous layer close to the sensor surface. When target molecules in solution bind to ligands, immobilised on the sensor surface, the mass increases, and when they dissociate from the ligands the mass decreases. This principle facilitates a continuous, real time monitoring of the association and dissociation of interacting molecules. The graphical presentation of the relationship provides quantitative information in real time on the binding specificity, active concentration of molecule in a sample, reaction kinetics and affinity. […]
Immobilisation occurred by direct covalent coupling to the surface (using the Amine Coupling Kit, BiaCore, GE Health Care) or via a capturing molecule as prescribed by the manufacturer (BiaCore, GE Health Care). The amount of coupled target was quantified and expressed in Refractive Units (RU). […]

The test system of test [2] is VhhRR6(R2)-Z (variable region of Llama single chain antibody against RR6 fused to Z domain of Staphylococcus aureus protein A, SEQ ID NO 28). The test can be described thus: Biacore SPR, binding of DAP VhhRR6(R2)-Z to Reactive Red 6 ligand (biotin-Reactive Red 6 on SA chip). The settings on record: Table 1 (summary, rounded). The text has this: (§1) The commercialised surface plasmon resonance (SPR) technology for real time monitoring biomolecular binding event is used to measure the binding affinities for the prepared DAP candidates. The general principle of this technology is that a SPR sensor chip measures changes in refractive index, and the changes in refractive index correlate to changes in mass in the aqueous layer close to the sensor surface. When target molecules in solution bind to ligands, immobilised on the sensor surface, the mass increases, and when they dissociate from the ligands the mass decreases. This principle facilitates a continuous, real time monitoring of the association and dissociation of interacting molecules. The graphical presentation of the relationship provides quantitative information in real time on the binding specificity, active concentration of molecule in a sample, reaction kinetics and affinity.
In order to evaluate the binding affinities for both of the binding affinities present in the DAP either IgG or the capturing ligand had to be immobilized onto the sensor chip. For IgG rabbit anti-Mannanase was used and for the ligand the chip was coated with streptavidin and the ligand was then immobilized via biotin linked to the appropriate ligand.
In order to measure the binding to RR6 and acarbose the following compounds were prepared; biotin-linked acarbose and biotin-linked RR6.
The mixture was stirred at RT for 30 min. […]
(§2) The DAP candidates were analysed for binding to the capturing ligand sensor chip and the target biomolecule sensor chip respectively. […]
Immobilisation occurred by direct covalent coupling to the surface (using the Amine Coupling Kit, BiaCore, GE Health Care) or via a capturing molecule as prescribed by the manufacturer (BiaCore, GE Health Care). The amount of coupled target was quantified and expressed in Refractive Units (RU).
Interactions were monitored by injecting samples (20 μl/min) over the prepared sensor surface of the chip. Unless stated otherwise, the binding was assessed in 10 mM sodium acetatbuffer pH 5.0 at room temperature. […]

Test [3] deals with VhhRR6(R2)-Z + IgG (variable region of Llama single chain antibody against RR6 fused to Z domain of Staphylococcus aureus protein A, SEQ ID NO 28, with IgG …). The test can be described thus: Biacore SPR, binding of DAP VhhRR6(R2)-Z to Reactive Red 6 ligand in the presence of IgG. The settings on record: Table 1 footnote b; VhhRR6(R2)-Z mixed with IgG before loading to the Biacore.
From the text: as §1, with “affinity. […]” for “affinity.”
as §2
Immobilisation occurred by direct covalent coupling to the surface (using the Amine Coupling Kit, BiaCore, GE Health Care) or via a capturing molecule as prescribed by the manufacturer (BiaCore, GE Health Care). The amount of coupled target was quantified and expressed in […] (RU). […]

T1 sequence (P69328 25-526, added parts left off): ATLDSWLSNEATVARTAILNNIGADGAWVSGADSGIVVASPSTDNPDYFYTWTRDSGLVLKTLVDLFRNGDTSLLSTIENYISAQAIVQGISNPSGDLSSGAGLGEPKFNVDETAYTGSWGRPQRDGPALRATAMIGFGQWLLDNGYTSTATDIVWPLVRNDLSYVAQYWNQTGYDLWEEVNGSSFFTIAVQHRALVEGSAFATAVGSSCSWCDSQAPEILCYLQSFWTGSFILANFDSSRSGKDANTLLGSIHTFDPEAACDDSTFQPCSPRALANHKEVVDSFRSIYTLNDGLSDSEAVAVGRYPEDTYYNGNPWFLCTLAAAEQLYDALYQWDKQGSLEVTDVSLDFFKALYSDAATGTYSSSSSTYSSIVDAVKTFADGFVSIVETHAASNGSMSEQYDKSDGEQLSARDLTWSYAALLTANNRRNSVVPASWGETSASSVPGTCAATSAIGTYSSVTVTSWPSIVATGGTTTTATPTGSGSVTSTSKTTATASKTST

For the compound `C[C@H]1O[C@H](O[C@H]2[C@H](O)[C@@H](O)[C@@H](O[C@H]3[C@H](O)[C@@H](O)C(O)O[C@@H]3CO)O[C@@H]2CO)[C@H](O)[C@@H](O)[C@@H]1N[C@H]1C=C(CO)[C@@H](O)[C@H](O)[C@H]1O` (stereo partly shown) [Acarbose], the kon in test [1] (pH 5, read-out: Ligand binding ka) is 10000 M⁻¹ s⁻¹. Moreover, the koff in test [1] (pH 5, read-out: Ligand binding kd) is 0.002 s⁻¹.

As for Reactive Red 6 [RR6], in test [2], the Kd is 0.2 µM, the Ligand binding ka worked out at 20000 M⁻¹ s⁻¹ and the Ligand binding kd was found to be 0.004 s⁻¹. Further, in test [3], the Kd stood at 10 µM and the “binding after injection is stopped” value was “the binding is broken completely as soon as the injection is stopped”.

What is called Kd is the equilibrium constant for the complex coming apart.

For the origin of these results see patent publication US20110207916A1, “Dual Affinity Polypeptides for Purification” (priority 2007, published 2011).
